A short description of this data set: solvent given as SMILES.

Values joined by “and” are separate entries in the source; they are usually repeats but may differ in a detail not shown here. Equal entries are not always repeated.

`c1ccc(-c2nc(-c3ccc(-c4nc(-c5ccccc5)c(-c5ccccc5)[nH]4)s3)[nH]c2-c2ccccc2)cc1`: the absorption maximum is 386 nm (in C1CCOC1); 385 nm (in CC#N); 392 nm (in CC(=O)O); 384 nm and 385 nm (in CC(C)=O); 385 nm (in CCOC(C)=O); 384 nm (in CCOCC). The absorption maximum was 382 nm (in CO); 395 nm and 394.99 nm (in ClC(Cl)Cl).

Consider `CCN(CC)c1ccc(-c2nc(Oc3ccc(-c4nc5ccc(Cl)cc5o4)cc3)nc(Oc3ccc(-c4nc5ccc(Cl)cc5o4)cc3)n2)cc1`, for which the absorption maximum (in CN(C)C=O) stood at 393 nm.

Consider `C#CCOc1ccc(/C=C/C2=[N+]3C(=C(c4ccc(N(CC)CC)cc4)c4c(C)cc(/C=C/c5ccc(OCC(=O)OC)cc5)n4[B-]3(F)F)C(C)=C2)cc1`, for which the absorption maximum (in CO) was 640 nm.

In the case of `CC1(C)c2ccccc2N(c2ccc3c(ccc4nc5ccc6cc(N7c8ccccc8C(C)(C)c8ccccc87)ccc6c5nc43)c2)c2ccccc21`, the absorption maximum (in C1CCCCC1) is recorded as 413 nm; the absorption maximum (in C1CCOC1) stood at 416 nm; the absorption maximum (in CN(C)C=O) turned out to be 418 nm; the absorption maximum (in Cc1ccccc1) turned out to be 416 nm; the absorption maximum (in ClCCl) is on record as 416 nm.

With `OCCSc1cccc2[n+]1[B-](F)(F)n1c(c3cccc4cccc1c43)=N2`, the absorption maximum is 485 nm (in C1CCOC1); 480 nm (in CC#N); 484 nm (in CCCCCC); 487 nm (in Cc1ccccc1); 482 nm and 453 nm (in ClCCl).

In turn, `CCCCCCCCCCCCCCCCCCOC(=O)/C=C/C1=CC2=C(c3c(C)cc(C)cc3C)c3cc(/C=C/C(=O)OCCCCCCCCCCCCCCCCCC)cn3[B-](F)(F)[N+]2=C1` gave an absorption maximum (in ClCCl) of 578 nm.

As for `CCCCCCCN1C(=CC2=C([O-])C(=CC3=[N+](CCCCCCC)c4ccccc4C3(C)C)C2=C(C#N)C#N)Sc2ccccc21`, the absorption maximum by setting is: (in C1COCCO1) 694 nm; (in CCO) 681 nm; (in CN(C)C=O) 681 nm; (in ClC(Cl)Cl) 690 nm.

`COc1ccc(/C=C/c2nc3ccccc3o2)cc1`: the absorption maximum amounted to 330 nm (in C1CCCCC1) and 340 nm (in CO).

Turning to `CC(C)[Si](C#Cc1c2cc3ccccc3cc2c(C#C[Si](C(C)C)(C(C)C)C(C)C)c2nc3cc4c(cc3nc12)C1c2ccccc2C4c2ccccc21)(C(C)C)C(C)C`, the absorption maximum by setting is: (in CCCCCC) 675 nm; (in ClCCl) 683 nm.

Turning to `CN(C)c1ccc(C2=CC3=C(c4ccc(C=O)cc4)[C@H]4c5ccccc5[C@]3(S2)c2ccccc24)cc1`, the absorption maximum (in ClCCl) is reported as 449 nm.

Take `F[B-]1(F)n2c(ccc2N2CCOCC2)C(c2ccccc2)=C2C=CC(N3CCOCC3)=[N+]21`: the absorption maximum came to 566 nm (in CC#N); 573 nm (in CCCCCC); 570 nm (in CCOC(C)=O); 561 nm (in CO); 572 nm (in ClCCl).

Regarding `c1ccc2c(C3=C(c4cccc5ccccc45)c4cccc5c4c(cc4nc6ccccc6nc45)O3)cccc2c1`, the absorption maximum (in ClCCl) is 486 nm.

For the compound `Clc1ccc(/C=C(\c2ccccc2)c2nc3ccccc3o2)cc1`, the absorption maximum runs as follows: (in C1CCCCC1) 330 nm; (in CO) 330 nm.

`COc1ccc(-c2[nH]c(=O)n3c2-c2ccccc2C3=O)c(OC)c1` showed an absorption maximum (in CC#N) of 401 nm, an absorption maximum (in CO) of 401 nm and an absorption maximum (in ClCCl) of 406 nm.

For `CN(C)CCN(Cc1c2ccccc2c(CN(CCN(C)C)c2ccc([N+](=O)[O-])cc2[N+](=O)[O-])c2ccccc12)c1ccc([N+](=O)[O-])cc1[N+](=O)[O-]`, the absorption maximum reads like this: (in C1CCCCC1) 340 nm; (in C1CCOC1) 351 nm; (in CC#N) 347 nm; (in CC(C)=O) 352 nm; (in CCO) 341 nm; (in CN(C)C=O) 340 nm. Further, the absorption maximum reads like this: (in CO) 341 nm; (in ClC(Cl)Cl) 342 nm.

For the setting “in ClCCl”, `CCCCN(CCCC)c1ccc2c#cc3cc4c#cc5ccc(N(CCCC)CCCC)cc5c#cc#cc5cc(C(F)(F)F)ccc5c#cc4cc3c#cc3ccc(C(F)(F)F)cc3c#cc#cc2c1` showed an absorption maximum of 454 nm.

With `O=C1CCCC2=C1CC1=C(CCCC1=O)N2NC(=O)c1ccccc1`, the absorption maximum stood at 366 nm (in C1CCOC1); 368 nm (in CC#N); 366 nm (in CC(C)=O); 376 nm (in CCCCCO); 374 nm (in CO); 370 nm (in ClC(Cl)Cl). Further, the absorption maximum (in ClCCl) came out at 364 nm.

Take `CCC1=[N+]2c3c(c4ccc(Oc5c(C)cc(C)cc5C)c5cc6c(Oc7c(C)cc(C)cc7C)ccc7c8cc(CC)n(c8c3c(c54)c67)[B-]2(F)F)=C1`: the absorption maximum (in Cc1ccccc1) amounted to 867 nm.

In turn, `FC(F)(F)c1ccc(-c2nc(-c3ccc(C(F)(F)F)cc3)n3ccccc23)cc1` had an absorption maximum (in ClC(Cl)Cl) of 325 nm.

Where the note is “in ClC(Cl)Cl”, `C[Si](C)(C)c1sc([Si](C)(C)C)c2c1sc1c2sc2sc3sc4c(sc5c([Si](C)(C)C)sc([Si](C)(C)C)c54)c3c21` came in with an absorption maximum of 332 nm.

`COc1cccc(-c2nc(-c3ccccc3)c(-c3ccccc3)[nH]2)c1`: for the setting “in CO”, the absorption maximum stood at 300 nm.

Regarding `COc1cc2c(cc1-c1ccc(Cl)cc1)Cc1c3c(c4c(c1-2)-c1cc(OC)c(-c2ccc(Cl)cc2)cc1C4)C(=O)N(CCC(C)C)C3=O`, under “in C1CCOC1”, the absorption maximum is 406 nm.

For the setting “in ClCCl”, `CCOC(=O)C1=C(C(=O)OCC)C2(c3ccccc3-c3c(Br)cc(Br)cc32)C2(/C=C/c3ccc(Cl)cc3)c3cc(OC)c(OC)cc3CCN12` (stereo not given) gave an absorption maximum of 329 nm.

Take `CCCCC1(CCCC)c2cc(C#Cc3ccc4ccc5cccc6ccc3c4c56)ccc2-c2ccc(C#Cc3ccc4ccc5cccc6ccc3c4c56)cc21`: the absorption maximum is given as 418 nm (in C1CCCCC1); 421 nm (in C1CCOC1); 420 nm (in CC#N); 419 nm (in CCOC(C)=O); 427 nm (in CN(C)C=O); 424 nm (in Cc1ccccc1). The absorption maximum is reported as 421 nm (in ClC(Cl)Cl) and 424 nm (in ClCCl).

Take `Cc1cccc(C)c1N1C(c2ccccc2)=Cc2cccc[n+]2[B-]1(F)F`: for the setting “in ClCCl”, the absorption maximum was 397 nm.

Regarding `CC1(C)Cc2c(c3ccccc3c3nc4c(nc23)c2c(c3ccccc34)OC(C)(C)C2)O1`, the absorption maximum was 451.06 nm (in C1CCCCC1); 453.93 nm (in C1COCCO1); 454.96 nm (in CC#N); 452.08 nm (in CC(C)O); 450.05 nm (in CCCCCC); 457.04 nm (in ClC(Cl)Cl). The absorption maximum (in c1ccccc1) worked out at 454.96 nm.

For `CC/[NH+]=c1\cc2oc3cc(NCCC(=O)NC(C(=O)OC)c4ccccc4)c4ccccc4c3nc-2cc1C` (stereo not given), the absorption maximum by setting is: (in CCO) 580 nm; (in O) 590 nm.

The compound `CCCCCCN(CCCCCC)c1ccc(C#Cc2ccc(C(F)(F)F)cc2)cc1` displayed an absorption maximum (in CO) of 356 nm and an absorption maximum (in ClCCl) of 362 nm.

Compound `N#CC(/N=C/c1c(O)ccc2ccccc12)=C(C#N)/N=C/c1c(O)ccc2ccccc12` yielded an absorption maximum (in CC#N) of 520 nm.

`CCCCCCCCn1nnc(-c2ccc(C#Cc3ccc(C#Cc4ccc(-c5nnn(CCCCCCCC)n5)cc4)c4nc5c6ccccc6c6ccccc6c5nc34)cc2)n1`: the absorption maximum is listed as 428 nm (in C1CCOC1), 428 nm (in Cc1ccccc1) and 428 nm (in ClCCl).

`O=c1c2cc(F)c(O)cc2oc2cc(O)c(F)cc12` showed an absorption maximum (in CCO) of 369 nm.

For the compound `c1ccc(-c2cc(-c3ccc(-c4nc(-c5ccccn5)c(-c5ccccn5)[nH]4)cc3)cc(-c3ccccn3)n2)nc1`, the absorption maximum is recorded as 371 nm (in C1CCOC1); 380 nm (in CC#N); 381 nm (in CC(C)=O); 326 nm (in CCO); 360 nm (in CCOC(C)=O); 337 nm (in CN(C)C=O). The absorption maximum is, setting by setting: (in CO) 321 nm; (in CS(C)=O) 338 nm; (in ClC(Cl)Cl) 408 nm; (in ClCCl) 388 nm.

The compound `C[n+]1ccc2c(ccc3c[n+](C)ccc32)c1` displayed an absorption maximum (in CC#N) of 387 nm.

Regarding `O=C(O)c1ccc(-c2ccc(-c3nc(-c4ccccc4)c4ccccn34)cc2)s1`, under “in CC#N”, the absorption maximum is 362 nm.

Consider `COc1ccc(/C=C/C=C/C2=NC3C(=O)NC(N)=NC3N2[C@H]2C[C@H](O)[C@@H](CO)O2)cc1` (stereo not given in full), for which the absorption maximum is, setting by setting: (in C1COCCO1) 354 nm; (in CC#N) 352 nm; (in CO) 342 nm.

For `CCOC(=O)CCOc1ccc(C(c2c(C)[nH]c3ccccc23)c2c(C)[nH]c3ccccc23)cc1OC`, the absorption maximum by setting is: (in C1CCCCC1) 291 nm; (in CC#N) 289 nm; (in CO) 289 nm.

As for `CCCCCCC(CCCCCC)n1c(=O)c2c3ccc4cccc5c6cccc7ccc(c2c1=O)c(c76)c3c45`, the absorption maximum (in C1CCCCC1) is given as 335 nm; the absorption maximum (in CC#N) came out at 336 nm; the absorption maximum (in CC(C)=O) is 336 nm; the absorption maximum (in CCCCCC) is 334 nm; the absorption maximum (in CCO) came out at 336 nm; the absorption maximum (in CCOCC) is 335 nm. Besides, the absorption maximum runs as follows: (in CS(C)=O) 339 nm; (in Cc1ccccc1) 339 nm; (in ClC(Cl)(Cl)Cl) 338 nm; (in ClC(Cl)Cl) 339 nm.

Compound `N#CC(C#N)=Cc1ccc2c(c1)[nH]c1c3ccccc3sc21` returned an absorption maximum (in ClCCl) of 445 nm.

Take `CNc1ccc2nc3cc(Cl)c(Cl)cc3nc2c1`: where the note is “in CCO”, the absorption maximum is recorded as 490 nm.

For `COc1cc2c(cc1F)c(=O)c1cc(F)c(OC)cc1n2Cc1ccccc1`, the absorption maximum (in CCO) was determined as 381 nm.

Compound `O=C1c2ccccc2C2=Nc3cccc4cccc(c34)N12` displayed an absorption maximum (in ClCCl) of 448 nm.

These data come from the Deep4Chem optical property database.
